Legend:
Format in all cases: functional
Staphylococcus aureus [1] = experiment: Antibacterial activity against vancomycin-intermediate resistant Staphylococcus aureus Mu 50 assessed as reduction in microbial growth incubated for 24 hrs by broth microdilution method
Staphylococcus aureus [2] = experiment: Antibacterial activity against methicillin-susceptible Staphylococcus aureus Newman ATCC 25904 assessed as reduction in microbial growth incubated for 24 hrs by broth microdilution method
Enterococcus faecium [3] = experiment: Antibacterial activity against glycopeptide-resistant Enterococcus faecium Efm-HS-0649 assessed as reduction in microbial growth incubated for 24 hrs by broth microdilution method
Staphylococcus aureus [4] = experiment: Antibacterial activity against methicillin-resistant Staphylococcus aureus USA300 assessed as reduction in microbial growth incubated for 24 hrs by broth microdilution method
Staphylococcus aureus [5] = experiment: Potency index, ratio of daptomycin MIC to test compound MIC for antibacterial activity against methicillin-susceptible Staphylococcus aureus Newman ATCC 25904
Enterococcus faecium [6] = experiment: Potency index, ratio of daptomycin MIC to test compound MIC for antibacterial activity against glycopeptide-resistant Enterococcus faecium Efm-HS-0649

Row | Structure (SMILES) | MIC (Staphylococcus aureus [1]) | MIC (Staphylococcus aureus [2]) | MIC (Enterococcus faecium [3]) | MIC (Staphylococcus aureus [4]) | Ratio (Staphylococcus aureus [5]) | Ratio (Enterococcus faecium [6])
1 | CCCCCCCCCC(=O)N[C@@H](Cc1c[nH]c2ccccc12)C(=O)N[C@H](CC(N)=O)C(=O)N[C@@H](CC(=O)O)C(=O)N[C@@H]1C(=O)NCC(=O)N[C@@H](CCCN)C(=O)N[C@@H](CC(=O)O)C(=O)N[C@H](C)C(=O)N[C@@H](CC(=O)O)C(=O)NCC(=O)N[C@H](CO)C(=O)N[C@@H]([C@H](C)CC(=O)O)C(=O)N[C@@H](CC(=O)c2ccccc2NCCC[S+](C)CC(O)CC)C(=O)O[C@@H]1C (single isomer, unassigned) | > 128 µg/mL | > 128 µg/mL | > 128 µg/mL | > 128 µg/mL |  | 
2 | CCCCCCCCCC(=O)N[C@@H](Cc1c[nH]c2ccccc12)C(=O)N[C@H](CC(N)=O)C(=O)N[C@@H](CC(=O)O)C(=O)N[C@@H]1C(=O)NCC(=O)N[C@@H](CCCN)C(=O)N[C@@H](CC(=O)O)C(=O)N[C@H](C)C(=O)N[C@@H](CC(=O)O)C(=O)NCC(=O)N[C@H](CO)C(=O)N[C@@H]([C@H](C)CC(=O)O)C(=O)N[C@@H](CC(=O)c2ccccc2NC)C(=O)O[C@@H]1C | 4 µg/mL | 1 µg/mL | 4 µg/mL | 1 µg/mL | 2 | 2
3 | CCCCCCCCCC(=O)N[C@@H](Cc1c[nH]c2ccccc12)C(=O)N[C@H](CC(N)=O)C(=O)N[C@@H](CC(=O)O)C(=O)N[C@@H]1C(=O)NCC(=O)N[C@@H](CCCN)C(=O)N[C@@H](CC(=O)O)C(=O)N[C@H](C)C(=O)N[C@@H](CC(=O)O)C(=O)NCC(=O)N[C@H](CO)C(=O)N[C@@H]([C@H](C)CC(=O)O)C(=O)N[C@@H](CC(=O)c2ccccc2NCCCCCCC)C(=O)O[C@@H]1C (single isomer, unassigned) | 2 µg/mL | 0.5 µg/mL | 0.25 µg/mL | 0.25 µg/mL | 2 | 2
4 | CCCCCCCCCC(=O)N[C@@H](Cc1c[nH]c2ccccc12)C(=O)N[C@H](CC(N)=O)C(=O)N[C@@H](CC(=O)O)C(=O)N[C@@H]1C(=O)NCC(=O)N[C@@H](CCCN)C(=O)N[C@@H](CC(=O)O)C(=O)N[C@H](C)C(=O)N[C@@H](CC(=O)O)C(=O)NCC(=O)N[C@H](CO)C(=O)N[C@@H]([C@H](C)CC(=O)O)C(=O)N[C@@H](CC(=O)c2ccccc2NCc2ccc3c(c2)CCO3)C(=O)O[C@@H]1C | 4 µg/mL | 1 µg/mL | 2 µg/mL | 1 µg/mL |  | 
5 | CCCCCCCCCC(=O)N[C@@H](Cc1c[nH]c2ccccc12)C(=O)N[C@H](CC(N)=O)C(=O)N[C@@H](CC(=O)O)C(=O)N[C@@H]1C(=O)NCC(=O)N[C@@H](CCCN)C(=O)N[C@@H](CC(=O)O)C(=O)N[C@H](C)C(=O)N[C@@H](CC(=O)O)C(=O)NCC(=O)N[C@H](CO)C(=O)N[C@@H]([C@H](C)CC(=O)O)C(=O)N[C@@H](CC(=O)c2ccccc2NCC)C(=O)O[C@@H]1C (single isomer, unassigned) | 4 µg/mL | 1 µg/mL | 1 µg/mL | 1 µg/mL | 2 | 2
6 | CCCCCCCCCC(=O)N[C@@H](Cc1c[nH]c2ccccc12)C(=O)N[C@H](CC(N)=O)C(=O)N[C@@H](CC(=O)O)C(=O)N[C@@H]1C(=O)NCC(=O)N[C@@H](CCCN)C(=O)N[C@@H](CC(=O)O)C(=O)N[C@H](C)C(=O)N[C@@H](CC(=O)O)C(=O)NCC(=O)N[C@H](CO)C(=O)N[C@@H]([C@H](C)CC(=O)O)C(=O)N[C@@H](CC(=O)c2ccccc2NCCCCC)C(=O)O[C@@H]1C (single isomer, unassigned) | 2 µg/mL | 0.5 µg/mL | 0.5 µg/mL | 0.125 µg/mL | 2 | 2
7 | CCCCCCCCCC(=O)N[C@@H](Cc1c[nH]c2ccccc12)C(=O)N[C@H](CC(N)=O)C(=O)N[C@@H](CC(=O)O)C(=O)N[C@@H]1C(=O)NCC(=O)N[C@@H](CCCN)C(=O)N[C@@H](CC(=O)O)C(=O)N[C@H](C)C(=O)N[C@@H](CC(=O)O)C(=O)NCC(=O)N[C@H](CO)C(=O)N[C@@H]([C@H](C)CC(=O)O)C(=O)N[C@@H](CC(=O)c2ccccc2NCc2ccccn2)C(=O)O[C@@H]1C | 32 µg/mL | 8 µg/mL | 8 µg/mL | 4 µg/mL | 8 | 8
8 | CCCCCCCCCC(=O)N[C@@H](Cc1c[nH]c2ccccc12)C(=O)N[C@H](CC(N)=O)C(=O)N[C@@H](CC(=O)O)C(=O)N[C@@H]1C(=O)NCC(=O)N[C@@H](CCCN)C(=O)N[C@@H](CC(=O)O)C(=O)N[C@H](C)C(=O)N[C@@H](CC(=O)O)C(=O)NCC(=O)N[C@H](CO)C(=O)N[C@@H]([C@H](C)CC(=O)O)C(=O)N[C@@H](CC(=O)c2ccccc2NCCC)C(=O)O[C@@H]1C | 4 µg/mL | 1 µg/mL | 1 µg/mL | 0.5 µg/mL | 2 | 2
